Data taken from PubChem BioAssay (NCI).
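Five concentrations, 48 hours, 96-well plates. TGI is the concentration that stops growth completely.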

Tests used:
Test in all cases: DTP human tumour cell line panel, 48 h
[1] = test system: SR leukemia
[2] = test system: NCI-H522 lung
[3] = test system: T-47D breast
[4] = test system: OVCAR-3 ovarian
[5] = test system: MDA-N
[6] = test system: SW-620 colon
[7] = test system: SN12C renal
[8] = test system: NCI-H226 lung
[9] = test system: DU-145 prostate
[10] = test system: RPMI-8226 leukemia
[11] = test system: HL-60(TB) leukemia
[12] = test system: SK-MEL-5 melanoma
[13] = test system: PC-3 prostate
[14] = test system: A498 renal
[15] = test system: LOX IMVI melanoma
[16] = test system: COLO 205 colon
[17] = test system: SNB-19 CNS
[18] = test system: HOP-62 NSCLC
[19] = test system: HOP-92 NSCLC
[20] = test system: HT29 colon
[21] = test system: KM12 colon
[22] = test system: IGROV1 ovarian
[23] = test system: EKVX NSCLC
[24] = test system: K-562 leukemia
[25] = test system: OVCAR-8 ovarian
[26] = test system: ACHN renal
[27] = test system: SF-539 CNS
[28] = test system: NCI/ADR-RES ovarian
[29] = test system: UO-31 renal
[30] = test system: SF-268 CNS
[31] = test system: CAKI-1 renal
[32] = test system: SF-295 CNS
[33] = test system: HS 578T breast
[34] = test system: SK-OV-3 ovarian
[35] = test system: MALME-3M melanoma
[36] = test system: NCI-H23 lung
[37] = test system: HCT-15 colon
[38] = test system: RXF 393 renal
[39] = test system: SK-MEL-28 melanoma
[40] = test system: UACC-62 melanoma
[41] = test system: CCRF-CEM leukemia
[42] = test system: SK-MEL-2 melanoma
[43] = test system: MCF7 breast
[44] = test system: A549 NSCLC
[45] = test system: M14 melanoma
[46] = test system: SNB-75 CNS
[47] = test system: BT-549 breast
[48] = test system: MOLT-4 leukemia
[49] = test system: HCT-116 colon
[50] = test system: MDA-MB-435
[51] = test system: OVCAR-5 ovarian
[52] = test system: 786-0 renal
[53] = test system: NCI-H460 lung
[54] = test system: U251 CNS
[55] = test system: TK-10 renal
[56] = test system: OVCAR-4 ovarian
[57] = test system: MDA-MB-231 breast
[58] = test system: UACC-257 melanoma
[59] = test system: HCC-2998 colon

COc1cc(S(=O)(=O)Nc2ccc(-c3csc(N4C(=O)C(C)SC4c4cccc(Oc5ccccc5)c4)n3)cc2)ccc1Cl (stereo not drawn)
TGI [1]: > 100 µM
TGI [2]: > 100 µM
TGI [3]: > 100 µM
TGI [4]: > 100 µM
TGI [5]: > 100 µM
TGI [6]: > 100 µM
TGI [7]: > 100 µM
TGI [8]: > 100 µM
TGI [9]: > 100 µM
TGI [10]: > 100 µM
TGI [11]: 67.2 µM
TGI [12]: > 100 µM
TGI [13]: > 100 µM
TGI [14]: 79.3 µM
TGI [15]: > 100 µM
TGI [16]: > 100 µM
TGI [17]: > 100 µM
TGI [18]: > 100 µM
TGI [19]: > 100 µM
TGI [20]: > 100 µM
TGI [21]: > 100 µM
TGI [22]: > 100 µM
TGI [23]: > 100 µM
TGI [24]: > 100 µM
TGI [25]: > 100 µM
TGI [26]: > 100 µM
TGI [27]: > 100 µM
TGI [28]: > 100 µM
TGI [29]: > 100 µM
TGI [30]: > 100 µM
TGI [31]: > 100 µM
TGI [32]: > 100 µM
TGI [33]: > 100 µM
TGI [34]: > 100 µM
TGI [35]: > 100 µM
TGI [36]: > 100 µM
TGI [37]: > 100 µM
TGI [38]: 88.2 µM
TGI [39]: > 100 µM
TGI [40]: > 100 µM
TGI [41]: > 100 µM
TGI [42]: > 100 µM
TGI [43]: 72.2 µM
TGI [44]: > 100 µM
TGI [45]: > 100 µM
TGI [46]: > 100 µM
TGI [47]: > 100 µM
TGI [48]: > 100 µM
TGI [49]: > 100 µM
TGI [50]: > 100 µM
TGI [51]: > 100 µM

CC(CCc1ccccc1)NCC(O)n1c(/N=N/N(C)C)nc2c1c(=O)n(C)c(=O)n2C (stereo not drawn)
TGI [52]: > 100 µM
TGI [1]: > 100 µM
TGI [53]: > 100 µM
TGI [2]: > 100 µM
TGI [3]: > 100 µM
TGI [4]: > 100 µM
TGI [5]: > 100 µM
TGI [6]: > 100 µM
TGI [8]: > 100 µM
TGI [10]: > 100 µM
TGI [11]: > 100 µM
TGI [12]: > 100 µM
TGI [13]: > 100 µM
TGI [14]: > 100 µM
TGI [54]: > 100 µM
TGI [15]: > 100 µM
TGI [16]: > 100 µM
TGI [17]: > 100 µM
TGI [18]: > 100 µM
TGI [19]: > 100 µM
TGI [20]: > 100 µM
TGI [21]: > 100 µM
TGI [22]: > 100 µM
TGI [23]: > 100 µM
TGI [55]: > 100 µM
TGI [24]: > 100 µM
TGI [25]: > 100 µM
TGI [26]: > 100 µM
TGI [27]: > 100 µM
TGI [28]: > 100 µM
TGI [29]: > 100 µM
TGI [30]: > 100 µM
TGI [31]: > 100 µM
TGI [32]: > 100 µM
TGI [33]: > 100 µM
TGI [34]: > 100 µM
TGI [35]: > 100 µM
TGI [36]: > 100 µM
TGI [37]: > 100 µM
TGI [38]: > 100 µM
TGI [39]: > 100 µM
TGI [56]: > 100 µM
TGI [57]: > 100 µM
TGI [40]: > 100 µM
TGI [41]: > 100 µM
TGI [42]: > 100 µM
TGI [43]: > 100 µM
TGI [44]: > 100 µM
TGI [45]: > 100 µM
TGI [46]: > 100 µM
TGI [47]: > 100 µM
TGI [48]: > 100 µM
TGI [58]: > 100 µM
TGI [49]: > 100 µM
TGI [50]: > 100 µM
TGI [51]: > 100 µM

Cc1cccc(C)c1NC(=O)/C=C/c1ccccc1
TGI [52]: > 100 µM
TGI [1]: > 100 µM
TGI [53]: > 100 µM
TGI [2]: > 100 µM
TGI [3]: > 100 µM
TGI [4]: > 100 µM
TGI [5]: > 100 µM
TGI [6]: > 100 µM
TGI [7]: > 100 µM
TGI [8]: > 100 µM
TGI [9]: > 100 µM
TGI [10]: > 100 µM
TGI [11]: > 100 µM
TGI [12]: > 100 µM
TGI [13]: > 100 µM
TGI [14]: > 100 µM
TGI [54]: > 100 µM
TGI [15]: > 100 µM
TGI [16]: > 100 µM
TGI [17]: > 100 µM
TGI [18]: > 100 µM
TGI [20]: > 100 µM
TGI [21]: > 100 µM
TGI [23]: > 100 µM
TGI [55]: > 100 µM
TGI [24]: > 100 µM
TGI [25]: > 100 µM
TGI [26]: > 100 µM
TGI [27]: > 100 µM
TGI [30]: > 100 µM
TGI [31]: > 100 µM
TGI [32]: > 100 µM
TGI [33]: > 100 µM
TGI [59]: > 100 µM
TGI [34]: > 100 µM
TGI [35]: > 100 µM
TGI [36]: > 100 µM
TGI [37]: > 100 µM
TGI [39]: > 100 µM
TGI [56]: > 100 µM
TGI [57]: > 100 µM
TGI [40]: > 100 µM
TGI [41]: > 100 µM
TGI [42]: > 100 µM
TGI [43]: > 100 µM
TGI [44]: > 100 µM
TGI [45]: > 100 µM
TGI [46]: > 100 µM
TGI [47]: > 100 µM
TGI [48]: > 100 µM
TGI [58]: > 100 µM
TGI [49]: > 100 µM
TGI [50]: > 100 µM
TGI [51]: > 100 µM

CC1=C(C(=O)OCCc2ccc([N+](=O)[O-])cc2)C(c2cccc([N+](=O)[O-])c2)C(C(=O)OC(C)C)=C(C)N1 (stereo not drawn)
TGI [52]: > 100 µM
TGI [1]: > 100 µM
TGI [53]: > 100 µM
TGI [2]: 7.71 µM
TGI [3]: > 100 µM
TGI [4]: > 100 µM
TGI [5]: > 100 µM
TGI [6]: > 100 µM
TGI [7]: > 100 µM
TGI [8]: > 100 µM
TGI [9]: > 100 µM
TGI [12]: 7.25 µM
TGI [13]: > 100 µM
TGI [54]: > 100 µM
TGI [15]: > 100 µM
TGI [16]: > 100 µM
TGI [17]: > 100 µM
TGI [18]: > 100 µM
TGI [20]: > 100 µM
TGI [21]: > 100 µM
TGI [22]: > 100 µM
TGI [23]: > 100 µM
TGI [55]: > 100 µM
TGI [24]: > 100 µM
TGI [25]: > 100 µM
TGI [26]: > 100 µM
TGI [27]: > 100 µM
TGI [28]: > 100 µM
TGI [29]: > 100 µM
TGI [30]: > 100 µM
TGI [31]: > 100 µM
TGI [32]: > 100 µM
TGI [33]: > 100 µM
TGI [59]: > 100 µM
TGI [34]: > 100 µM
TGI [35]: > 100 µM
TGI [36]: > 100 µM
TGI [37]: > 100 µM
TGI [38]: > 100 µM
TGI [39]: > 100 µM
TGI [56]: > 100 µM
TGI [40]: > 100 µM
TGI [41]: > 100 µM
TGI [42]: > 100 µM
TGI [43]: > 100 µM
TGI [44]: > 100 µM
TGI [45]: > 100 µM
TGI [46]: 76.7 µM
TGI [47]: > 100 µM
TGI [48]: > 100 µM
TGI [58]: > 100 µM
TGI [49]: > 100 µM
TGI [50]: > 100 µM
TGI [51]: > 100 µM

O=C1CC(Cl)c2c1csc2Br (stereo not drawn)
TGI [52]: 25.9 µM
TGI [1]: 22.3 µM
TGI [53]: 42.5 µM
TGI [2]: 11.3 µM
TGI [3]: 70.1 µM
TGI [4]: 39.5 µM
TGI [5]: 42.2 µM
TGI [6]: 12.6 µM
TGI [7]: 35.7 µM
TGI [8]: 76.9 µM
TGI [9]: > 100 µM
TGI [10]: 3.25 µM
TGI [11]: 52.4 µM
TGI [12]: 30.6 µM
TGI [13]: 25.4 µM
TGI [14]: 53.8 µM
TGI [54]: 30.4 µM
TGI [15]: 30.5 µM
TGI [16]: 28.5 µM
TGI [17]: 32.9 µM
TGI [18]: 28.7 µM
TGI [19]: 41.8 µM
TGI [20]: 43.9 µM
TGI [21]: 28.5 µM
TGI [22]: 30.8 µM
TGI [23]: 43.2 µM
TGI [55]: 29.5 µM
TGI [24]: 47 µM
TGI [25]: 29.8 µM
TGI [26]: 29 µM
TGI [27]: 6.46 µM
TGI [28]: 47 µM
TGI [29]: 23.8 µM
TGI [30]: 31.4 µM
TGI [31]: 17.7 µM
TGI [32]: 50.2 µM
TGI [33]: 47.5 µM
TGI [59]: 31.2 µM
TGI [34]: 32.6 µM
TGI [35]: 30.1 µM
TGI [36]: 28.9 µM
TGI [37]: 25.8 µM
TGI [38]: 34.7 µM
TGI [39]: 32.1 µM
TGI [56]: 63.6 µM
TGI [40]: 29.5 µM
TGI [41]: 7.78 µM
TGI [42]: 29.8 µM
TGI [43]: 19.6 µM
TGI [44]: 41.4 µM
TGI [45]: 27.3 µM
TGI [46]: 35.4 µM
TGI [47]: 34 µM
TGI [48]: 22.2 µM
TGI [58]: 32.1 µM
TGI [49]: 33.1 µM
TGI [50]: 29.1 µM
TGI [51]: 33.5 µM
